The text below walks through data of patent US7105529B2, “Substituted oxindole derivatives as protein tyrosine and as protein serine/threonine kinase inhibitors and compositions and methods of treating chemotherapy and radiation therapy side effects” (SmithKline Beecham Corporation, priority 1997, dated 2006).

Data set [1] has as its system HDF normal diploid fibroblast cells. Description: MTT assay, HDF. Format: cell-based. The settings on record: Fibroblast, 72 h. As for the experimental part:
Compounds are tested for their ability to inhibit cell proliferation and cell viability. The metabolic conversion of 3-(4,5-dimethylthiazol-2-yl)-2,5-diphenyltetrazolium bromide (MTT, Sigma #M2128) to a reduced form is a commonly used measure of cellular viability. Following is the procedure: Cells are maintained in 75 cm^2 tissue culture flasks until ready for use. The cells are grown and plated for the assay in Dulbecco's modified Eagle's media (DMEM) containing 10% fetal bovine serum. For example, the following cell lines can be used: a) human foreskin fibroblasts (HFF); b) HT29 (human colon carcinoma cell line); c) MDA-MB468 (human breast carcinoma cell line); d) RKO (human colon adenocarcinoma cell line); e) SW620 (human colon carcinoma cell line); f A549 (human lung carcinoma cell line); and g) MIA PACA (human pancreatic carcinoma cell line). Cells are maintained at 37° C. in 10% CO2, 90% humidified air. Cells are plated in 96-well tissue culture plates at the densities listed below. 100 μL of cell suspension is added to each well of the 96-well plate except the top row of the plate which contains no cells and serves as a reference for the spectrophotometer. [table] Cells are incubated overnight in DMEM containing 10% fetal bovine serum at 37° C. in 10% CO2, 90% humidified air prior to dosing. […] Compounds with solubilities of less than 30 μM are dosed at the highest soluble concentration. Stock solutions of compounds are made in 100% dimethyl sulfoxide (DMSO). Stock solutions are diluted in DMEM containing 100 μg/ml gentamicin and 0.3 to 0.6% DMSO at the twice the highest concentration to be placed on the cells. If compounds have been dissolved in DMSO the final concentration of DMSO on the cells is kept below 0.3%. Three-fold serial dilutions are performed on each compound to prepare 10 concentrations of the compound for dosing. 100 μl of diluted compound is added to the 100 μl of media currently on the dish. For each concentration of compound, 2–4 replicate wells are prepared. Cells are returned to incubator and allowed to proliferate in the presence of compound for 72 h before addition of MTT. […] After 4 h incubation the media, compound and MTT mixture is aspirated from the plates and 100 μl of 100% DMSO is added to each well in addition to 25 μl of Sorenson's Buffer (0.1M glycine, 0.1M NaCl, pH 10.5). Quantitation of metabolic reduction of MTT in each plate is performed by reading optical density at 570 nm wavelength on a Molecular Devices UVmax microplate reader. […] HDF are normal diploid fibroblast cells. RKO are colon adenocarcinoma cells and MES/SA are ovarian carcinoma cells.
Background: Formazan colour is commonly taken as a measure of viable cells.

Data set [2] has the same test system. Description: FACS assay (cell death), HDF. The class given is cell-based. The settings on record: 50% cell death, 72 h. The method, then: These assays allow determination of both cell death and changes in cell cycle profile in cells following treatment of the compound. The assay is performend as follows: • 1. Cells are incubated in DMEM to which 10% FCS has been added in a humidified incubator at 37° C. and 5% by volume of CO2 in air. The cells are innoculated in 6-well plates at a density of 0.5–5×10^5 cells per well. • 2. The test compound is added in serial dilutions 24–36 h after plating in 0.5% DMSO. The plates are then incubated a further 72 h in the presence of the compound. During this time, cells in control cultures undergo at least three cell divisions. • 3. After incubation, the media is collected and cells are harvested by trypsinization. The cells and media are pooled and pelleted by centrifugation. • 4. The cell pellet is fixed in a final volume of 3 mL of 50% ice cold MeOH and incubated for a minimum of 30 min at −20° C. • 5. The cells are pelleted by centrifugation and resuspended in 0.5 mL PBS containing 1%FCS, […] Propidium Iodide (PI) and 5 mg/mL RNase A and incubated 30 min at 37° C. in the dark. • 6. The samples are analysed by flow cytometry using the relative incorporation of PI as a measure of DNA content of each cell. The % Dead cells is recorded as % of events with less than 2N DNA. […] HDF are normal diploid fibroblast cells. RKO are colon adenocarcinoma cells and MES/SA are ovarian carcinoma cells.
(A flow cytometer gives signals particle by particle.)

The next data set addresses T1, c-fms (Homo sapiens, UniProt P07333).
T1 sequence (P07333 539-972 limits assumed): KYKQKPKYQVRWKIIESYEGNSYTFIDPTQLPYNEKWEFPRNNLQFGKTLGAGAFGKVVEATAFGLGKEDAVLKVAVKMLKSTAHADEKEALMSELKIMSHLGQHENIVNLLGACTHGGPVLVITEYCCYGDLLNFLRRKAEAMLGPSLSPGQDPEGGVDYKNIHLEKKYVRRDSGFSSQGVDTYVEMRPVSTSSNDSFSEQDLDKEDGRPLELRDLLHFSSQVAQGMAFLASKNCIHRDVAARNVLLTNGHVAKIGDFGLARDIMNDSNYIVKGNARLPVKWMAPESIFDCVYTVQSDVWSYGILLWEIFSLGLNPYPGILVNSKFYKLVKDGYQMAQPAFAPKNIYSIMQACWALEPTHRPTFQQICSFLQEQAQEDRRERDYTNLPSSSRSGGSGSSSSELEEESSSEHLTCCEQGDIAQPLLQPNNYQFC
Description: c-fms protein kinase assay (SPA). Format: biochemical. As to conditions: Table 7, class symbols; read-out: c-fms kinase inhibition IC50. The method, then: c-fms protein kinase assays utilized the peptide substrate, biotin-[…]-NH2, as the phosphoryl group acceptor. The c-fms intracellular domain was expressed from a baculovirus expression system, as an amino-terminal GST fusion protein, and purified to homogeneity using Glutathione agarose from Sigma Chemical Co. Maximum activation of the enzyme was achieved by preactivation at room temperature for 120 min in the presence of 100 μM ATP and 15 mM MgCl2, This enzyme stock was diluted to 150 nM prior to using in the assay. Typically assays were performed in white, opaque, 96-well plates in a 45 ul assay volume including 15 ul 6% DMSO, with or without compounds, 15 ul of the preactivated, diluted enzyme, and 15 ul of a substrate mixture. Reactions contained 50 mM HEPES, pH 7.5, 1.7 μM ATP, 15 mM MgCl2, 3 μM peptide, 2.5 mM DTT, 50 mM NaCl and 0.15 uCi/assay [^32P]ATP. The controls were reactions in the presence (negative controls) or absence (positive controls) of 50 mM EDTA. Reactions were allowed to proceed for 90 min at room temperature. The reaction products were quantified using Scintillation Proximity technolgy. […] Plates were sealed and counted in a Packard Topcount scintillation counter. […]

In a further data set the target is CDK2 (Homo sapiens, UniProt P24941). Description: CDK2 substrate phosphorylation assay. The class given is biochemical.
For data set [3], the system named is etoposide-induced alopecia. In words: Protection from chemotherapy-induced alopecia in rat pups. Format: in vivo, Sprague-Dawley rat. As to conditions: 6 mg/kg etoposide intraperitoneally. The method, then:
Protection from chemotherapy-induced alopecia is determined in 7 day old Sprague-Dawley rat pups. The treatment is carried out by administering the compounds topically to the head of the animal in doses from 0.01 to 10 mg/kg 2 h before and 2 h after the administration of a single dose of 6 mg/kg etoposide intraperitoneally. Six days after dosing, animals are scored visually for hair loss using a grading scale from 1 (complete hair loss) to 4 (no apparent hair loss). In this assay, the prior treatment of the animal with the compound of this invention results in a marked reduction in the severity of alopecia compared to vehicle treated controls. Under the above described conditions of treatment, the compounds of the present invention also protect against other toxicities of etoposide. […] Animals treated with the compounds of the present invention in combination with etoposide, in the schedule indicated above, gain weight normally and even exceed the body weight of control, untreated animals.

The structures appear in SMILES notation.

Description for CDK2: CDK1 and CDK2 were both expressed utilizing a baculovirus expression system and were partially purified to comprise 20–80% of total protein, with no detectable competing reactions present. […] Reactions were terminated with 0.2–2 volumes of either 20% acetic acid or 50–100 mM EDTA buffered to pH 7 (substrate consumption <20%). The buffer employed in enzyme assays was either 30 mM HEPES 7.4 containing 0.15 M NaCl and 5% DMSO, the buffer 50 mM MOPS 7.0 containing 0.15 M NaCl and 5% DMSO, or the buffer 100 mM HEPES pH 7.5 containing 0.1 mg/mL BSA and 5% DMSO. Inhibitors were diluted in 100% DMSO prior to addition into the assay. Detection of peptide phosphorylation was accomplished by scintillation counting following either collection of peptide onto phosphocellulose filters (for reactions stopped with acetic acid), collection of peptide in wells of 96 well plates coated with Streptavidin (Pierce) (reactions were stopped with EDTA), or addition of Avidin coated Scintillant impregnated beads (Scintillation Proximity Assays from Amersham, reactions were stopped with EDTA).
CDK1 and CDK2 were both expressed utilizing a baculovirus expression system and were partially purified to comprise 20–80% of total protein, with no detectable competing reactions present. […]

The IC50 is the midpoint of a concentration-inhibition curve. As to `CC(C)(CO)CNS(=O)(=O)c1ccc(NC=C2C(=O)Nc3ccc4ncsc4c32)cc1` [Example 77, N-(3-Hydroxy-2,2-dimethyl-propyl)4-[(7-oxo-6,7-dihydro-1-thia-3,6-diaza-as-indacen-8-ylidenemethyl)-amino]-benzenesulfonamide], the IC50 in data set [1] and in data set [2] was over 5 µM throughout.
For `O=C1Nc2ccc3ncsc3c2C1=CNc1ccc2nn[nH]c2c1` [Example 101, 8-(3H-Benzotriazol-5-ylaminomethylene)-6,8-dihydro-1-thia-3,6-diaza-as-indacene-7-one], the IC50 in data set [1] and in data set [2] was over 5 µM throughout.
On to `O=C1Nc2ccc3ncccc3c2/C1=C/Nc1ccc(CCO)cc1` [Example 32], for which the concentration for half-maximal inhibition (IC50) on c-fms was over 0.1 µM.
Take `CCC(C)Cc1cccc2c1C(=NNc1ccc(S(N)(=O)=O)cc1)C(=O)N2` (stereo not drawn) [Example 11]: the IC50 in data set [2] was over 5 µM.
Turning to `CNS(=O)(=O)Cc1ccc(NN=C2C(=O)Nc3cc(C)c(O)c(C)c32)cc1` [Example 99], the IC50 at CDK2 is 0.051 to 0.1 µM; in data set [1], 0.6 to 1 µM; in data set [2] it was over 5 µM.
Consider `CN(C)S(=O)(=O)c1ccc(NC=C2C(=O)Nc3ccc(-c4cnco4)cc32)cc1` [Example 35], for which the 50% inhibitory concentration (IC50) in data set [1] and in data set [2] was over 5 µM each time.
In data set [1], `CC(C)COC(=O)c1ccc2c(c1)C(=CNc1ccc(S(N)(=O)=O)cc1)C(=O)N2` [Example 103, 2-Oxo-3-(4-sulfamoyl-phenylamino-methylene)-2,3-dihydro-1H-indole-5-carboxylic acid isobutyl ester] registered an IC50 of 1.1 to 5 µM.
Consider `CS(=O)(=O)Cc1ccc(NC=C2C(=O)Nc3ccc4ncsc4c32)cc1` [Example 76, 8-(4-Methylsulfonylmethyl-phenylamino-methylene)-6,8-dihydro-1-thia-3,6-diaza-as-indacen-7-one], for which the IC50 in data set [1] and in data set [2] was over 5 µM throughout.
As for `COc1cc([C@@H]2c3cc4c(cc3[C@@H](O[C@@H]3O[C@@H]5CO[C@@H](C)O[C@H]5[C@H](O)[C@H]3O)[C@H]3COC(=O)[C@H]23)OCO4)cc(OC)c1O` [etoposide], the “body weight gain, etoposide alone compared to untreated animals” value in data set [3] is given as “dramatic lack of weight gain”.
